Where “and” joins values, the source holds several entries; their conditions need not be identical. Equal values may be shown once. Inconclusive results and toxic doses are left out. Cut-off read from the data, not from the text of the source: active = T/C of 150% or more; inactive = T/C below 125%.
Test system: L1210 leukemia ip in BDF1 mice, survival T/C
Test: NCI In Vivo Anticancer Drug Screen. Data for tumor model L1210 Leukemia (intraperitoneal) in B6D2F1 (BDF1) mice
Conditions: endpoint: mean survival time, higher = longer survival
Procedure, shortened: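 Read-out is survival time, reported as the treated-group measurement over the vehicle-control measurement.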

[1] = dose: 100.0 mg/kg/injection, schedule: Q04DX003 (ip), vehicle: saline
[2] = dose: 200.0 mg/kg/injection, schedule: Q04DX003 (ip), vehicle: saline
[3] = dose: 100.0 mg/kg/injection, schedule: Q01DX009 (ip), vehicle: saline with Tween-80
[4] = dose: 200.0 mg/kg/injection, schedule: Q01DX009 (ip), vehicle: saline with Tween-80
[5] = dose: 50.0 mg/kg/injection, schedule: Q01DX009 (ip), vehicle: saline with Tween-80
[6] = dose: 100.0 mg/kg/injection, schedule: Q04DX003 (ip), vehicle: saline with Tween-80
[7] = dose: 200.0 mg/kg/injection, schedule: Q04DX003 (ip), vehicle: saline with Tween-80
[8] = dose: 100.0 mg/kg/injection, schedule: Q01DX001 (ip), vehicle: saline
[9] = dose: 200.0 mg/kg/injection, schedule: Q01DX001 (ip), vehicle: saline
[10] = dose: 400.0 mg/kg/injection, schedule: Q01DX001 (ip), vehicle: saline
[11] = dose: 50.0 mg/kg/injection, schedule: Q01DX001 (ip), vehicle: carboxymethylcellulose (CMC)
[12] = dose: 100.0 mg/kg/injection, schedule: Q01DX001 (ip), vehicle: carboxymethylcellulose (CMC)
[13] = dose: 200.0 mg/kg/injection, schedule: Q01DX001 (ip), vehicle: carboxymethylcellulose (CMC)
[14] = dose: 400.0 mg/kg/injection, schedule: Q01DX001 (ip), vehicle: carboxymethylcellulose (CMC)
[15] = dose: 400.0 mg/kg/injection, schedule: Q04DX003 (ip), vehicle: saline

Measured: T/C

COc1ccc(C(O)CN)cc1 (stereo not drawn)
inactive: dose: 50.0 mg/kg/injection, schedule: Q01DX009 (ip), vehicle: saline 93 % of control | dose: 100.0 mg/kg/injection, schedule: Q01DX009 (ip), vehicle: saline 102 % of control | [1] 105 % of control | dose: 200.0 mg/kg/injection, schedule: Q01DX009 (ip), vehicle: saline 95 % of control and 102 % of control | [2] 103 % of control

N/C(=N\O)c1cn(C2OC(CO)C(O)C2O)c2ncncc12 (stereo not drawn)
inactive: dose: 25.0 mg/kg/injection, schedule: Q01DX009 (ip), vehicle: saline 123 % of control | dose: 100.0 mg/kg/injection, schedule: Q01DX005 (ip), vehicle: saline 120 % of control

CC(C)=NNC(=O)c1ccc(N)cc1
inactive: [3] 91 % of control | [4] 101 % of control

COC(=O)C1(C)CCCC2(C)C1CCC13OCC(CC21)C(O)(C(C)C)C3O (stereo not drawn)
inactive: [5] 97 % of control | [3] 97 % of control | [4] 90 % of control

NC(=O)OCCc1c2ccccc2nc2ccccc12
inactive: dose: 200.0 mg/kg/injection, schedule: Q04DX002 (ip), vehicle: other 103 % of control

COC(OC)c1[nH]c(=S)[nH]c(=O)c1Cc1ccc(C)c(C)c1
inactive: [3] 104 % of control | [6] 94 % of control | [4] 96 % of control | [7] 96 % of control | dose: 400.0 mg/kg/injection, schedule: Q01DX009 (ip), vehicle: saline with Tween-80 87 % of control | dose: 400.0 mg/kg/injection, schedule: Q04DX003 (ip), vehicle: saline with Tween-80 100 % of control

COc1cc2c(c(OC)c1OC)-c1ccc(SC)c(=O)cc1C(N=Cc1ccccc1)CC2 (stereo not drawn)
inactive: [6] 106 % of control | [7] 90 % of control

O=[N+]([O-])c1cccc(/C=N/N(c2ccccc2)C2CCS(=O)(=O)C2)c1 (stereo not drawn)
inactive: dose: 100.0 mg/kg/injection, schedule: Q04DX002 (ip), vehicle: Klucel (hydroxypropylcellulose) (HPC) 95 % of control | dose: 200.0 mg/kg/injection, schedule: Q04DX002 (ip), vehicle: Klucel (hydroxypropylcellulose) (HPC) 106 % of control | dose: 400.0 mg/kg/injection, schedule: Q04DX002 (ip), vehicle: Klucel (hydroxypropylcellulose) (HPC) 103 % of control

O=C(OCCOc1ccccc1)c1ccc([N+](=O)[O-])cc1
inactive: [8] 100 % of control | [9] 98 % of control | [10] 116 % of control

Cc1cc(C)c(-c2cc(O)c(C)cc2O)c(C)c1
inactive: dose: 25.0 mg/kg/injection, schedule: Q01DX009 (ip), vehicle: other 103 % of control | dose: 50.0 mg/kg/injection, schedule: Q01DX009 (ip), vehicle: other 99 % of control | dose: 100.0 mg/kg/injection, schedule: Q01DX009 (ip), vehicle: other 101 % of control | dose: 200.0 mg/kg/injection, schedule: Q01DX009 (ip), vehicle: other 97 % of control | dose: 400.0 mg/kg/injection, schedule: Q01DX009 (ip), vehicle: other 100 % of control

OCCC(c1ccccc1)(c1ccccc1)c1ccccc1
inactive: dose: 6.25 mg/kg/injection, schedule: Q04DX003 (ip), vehicle: saline with Tween-80 98 % of control | dose: 12.5 mg/kg/injection, schedule: Q04DX003 (ip), vehicle: saline with Tween-80 100 % of control | dose: 25.0 mg/kg/injection, schedule: Q04DX003 (ip), vehicle: saline with Tween-80 89 % of control and 91 % of control | [6] 90 % of control

C=NNC(=O)c1ccc(OC)cc1
inactive: [11] 96 % of control | [12] 96 % of control | [13] 93 % of control | [14] 93 % of control

CCOC(=O)/C=C(\CC(=O)O)Nc1ccccc1
inactive: [8] 90 % of control | [9] 93 % of control | [10] 95 % of control

CC(=O)O[C@H]1CC[C@]2(C)[C@H]3CC[C@]4(C)[C@@H](OC(C)=O)CC[C@H]4[C@@H]3[C@@H](C)[C@]2(O)C1
inactive: dose: 50.0 mg/kg/injection, schedule: Q01DX001 (sc), vehicle: steriod suspending solution 102 % of control | dose: 100.0 mg/kg/injection, schedule: Q01DX001 (sc), vehicle: steriod suspending solution 100 % of control | dose: 200.0 mg/kg/injection, schedule: Q01DX001 (sc), vehicle: steriod suspending solution 102 % of control | dose: 400.0 mg/kg/injection, schedule: Q01DX001 (sc), vehicle: steriod suspending solution 105 % of control

Nc1ccc(NS(=O)(=O)Cc2ccccc2)cc1
inactive: dose: 100.0 mg/kg/injection, schedule: Q01DX001 (ip), vehicle: saline with Tween-80 98 % of control | dose: 200.0 mg/kg/injection, schedule: Q01DX001 (ip), vehicle: saline with Tween-80 96 % of control | dose: 400.0 mg/kg/injection, schedule: Q01DX001 (ip), vehicle: saline with Tween-80 107 % of control

CCOC(OCC)/C(C)=N\NC(N)=S
inactive: dose: 15.0 mg/kg/injection, schedule: Q01DX Z (ip), vehicle: carboxymethylcellulose (CMC) 98 % of control | dose: 30.0 mg/kg/injection, schedule: Q01DX Z (ip), vehicle: carboxymethylcellulose (CMC) 102 % of control | dose: 60.0 mg/kg/injection, schedule: Q01DX Z (ip), vehicle: carboxymethylcellulose (CMC) 96 % of control | dose: 120.0 mg/kg/injection, schedule: Q01DX Z (ip), vehicle: carboxymethylcellulose (CMC) 86 % of control | dose: 120.0 mg/kg/injection, schedule: Q01DX Z (oral), vehicle: carboxymethylcellulose (CMC) 95 % of control | dose: 240.0 mg/kg/injection, schedule: Q01DX Z (oral), vehicle: carboxymethylcellulose (CMC) 97 % of control | dose: 480.0 mg/kg/injection, schedule: Q01DX Z (oral), vehicle: carboxymethylcellulose (CMC) 94 % of control

N#CCCS(=O)(=O)CCc1ccccc1
inactive: dose: 75.0 mg/kg/injection, schedule: Q01DX009 (ip), vehicle: Klucel (hydroxypropylcellulose) (HPC) 96 % of control | dose: 150.0 mg/kg/injection, schedule: Q01DX009 (ip), vehicle: Klucel (hydroxypropylcellulose) (HPC) 96 % of control | dose: 300.0 mg/kg/injection, schedule: Q01DX009 (ip), vehicle: Klucel (hydroxypropylcellulose) (HPC) 105 % of control

N#C/C(=C\c1ccc([N+](=O)[O-])o1)[N+](=O)[O-]
inactive: dose: 25.0 mg/kg/injection, schedule: Q01DX009 (ip), vehicle: saline with Tween-80 110 % of control | [5] 96 % of control | [3] 104 % of control | [6] 106 % of control

COc1ccc(OC)c(NC(=O)Nc2ccc(F)cc2)c1
inactive: dose: 12.5 mg/kg/injection, schedule: Q01DX001 (ip), vehicle: carboxymethylcellulose (CMC) 98 % of control | dose: 12.5 mg/kg/injection, schedule: Q01DX009 (ip), vehicle: carboxymethylcellulose (CMC) 92 % of control and 94 % of control | dose: 12.5 mg/kg/injection, schedule: Q04DX002 (ip), vehicle: carboxymethylcellulose (CMC) 110 % of control | dose: 12.5 mg/kg/injection, schedule: Q04DX003 (ip), vehicle: carboxymethylcellulose (CMC) 95 % of control | dose: 25.0 mg/kg/injection, schedule: Q01DX001 (ip), vehicle: carboxymethylcellulose (CMC) 103 % of control | dose: 25.0 mg/kg/injection, schedule: Q01DX009 (ip), vehicle: carboxymethylcellulose (CMC) 95 % of control and 99 % of control | dose: 25.0 mg/kg/injection, schedule: Q04DX002 (ip), vehicle: carboxymethylcellulose (CMC) 98 % of control and 100 % of control | dose: 25.0 mg/kg/injection, schedule: Q04DX003 (ip), vehicle: carboxymethylcellulose (CMC) 91 % of control | [11] 95 % of control | dose: 50.0 mg/kg/injection, schedule: Q01DX009 (ip), vehicle: carboxymethylcellulose (CMC) 92 % of control and 89 % of control | dose: 50.0 mg/kg/injection, schedule: Q04DX002 (ip), vehicle: carboxymethylcellulose (CMC) 97 % of control | dose: 50.0 mg/kg/injection, schedule: Q04DX003 (ip), vehicle: carboxymethylcellulose (CMC) 93 % of control

c1ccc2c3c(ccc2c1)OCN(C12CC4CC(CC(C4)C1)C2)C3
inactive: [1] 98 % of control | [2] 105 % of control | [15] 89 % of control

Cc1nc(N)c2nonc2n1
inactive: [3] 89 % of control

O=N[O-].O=N[O-].O=N[O-].[Co+3].[NH2-].[NH2-].[NH2-]
inactive: [8] 92 % of control | [1] 119 % of control | [9] 90 % of control | [2] 105 % of control | [10] 97 % of control | [15] 97 % of control

O=C(O)CCc1c2ccc(=O)c(O)c-2oc2c(O)c(O)ccc12
inactive: [1] 106 % of control | [2] 105 % of control | [15] 100 % of control

OC(c1ccccc1)(c1ccccc1)c1ccccc1CNc1ccccc1
inactive: [11] 102 % of control | [12] 88 % of control | [13] 102 % of control | [14] 96 % of control
